In the supplement of paper PMC8882468:

Assays:
Test in all cases: CTG-3D luminescence at 96 h relative to day-0 seeding control (ratio to day 0); higher = more growth / less cytotoxicity; PDxO 3D drug screen, 96 h, CTG-3D normalised to day-0 seeding control.
HCI-001 = system: HCI-001 (organoid from a triple-negative breast cancer xenograft)
HCI-003.E2 = system: HCI-003.E2 (organoid from an ER-positive breast cancer xenograft)
HCI-010 = system: HCI-010 (organoid from a breast cancer xenograft)
HCI-016 = system: HCI-016 (organoid from a triple-negative breast cancer xenograft)

CC(C)(C(=O)NCC(F)(F)C(F)(F)F)C(=O)N[C@@H]1C(=O)Nc2ccccc2-c2ccccc21
CTG-3D luminescence at 96 h
Settings	12.5 pM	0.00025 µM	0.005 µM	0.1 µM	1 µM	10 µM	100 µM	625 fM
HCI-001, days in culture: 240	1.46	1.17	0.87	0.976	1.16	0.943	1.23	1.67
HCI-001, days in culture: 260	2.5	1.03	1.58	1.23	1.44	1.29	1.15	2.09
HCI-001, days in culture: 269	1.46	1.61	1.38	1.81	1.67	2.38	1.78	1.58
HCI-001, days in culture: 327	1.38	1.27	1.54	1.77	1.29	1.04	1.38	1.83
HCI-001, days in culture: 346	1.54	1.31	1.17	1.11	1.26	1.31	1.57	1.29
HCI-001, days in culture: 364	1.49	1.25	1.38	1.09	1.14	1.29	0.937	1.4
HCI-010, days in culture: 52	2.08	1.91	2.38	2.13	1.86	1.9	1.24	2.2
HCI-010, days in culture: 65	1.59	1.67	1.85	1.82	1.7	1.58	0.419	1.79
HCI-010, days in culture: 103	2.86	2.96	2.93	2.95	2.98	2.72	2.02	3.05
HCI-016, days in culture: 153	2.8	1.65	2.24	1.56	1.82	1.88	0.801	2.19
HCI-016, days in culture: 172	2.46	1.82	1.92	1.28	1.18	1.37	0.772	1.91
HCI-016, days in culture: 190	1.8	1.23	1.17	1.04	1.47	1.46	0.817	1.22
HCI-016, days in culture: 199	1.59	1.04	1.35	1.51	1.42	1.67	0.796	1.63

HCI-003.E2
Settings	CTG-3D luminescence at 96 h
12.5 pM	2.16
0.00025 µM	2.26
0.005 µM	2.01
0.1 µM	2.28
1 µM	1.96
10 µM	2.11
100 µM	0.942
625 fM	1.86

C[C@@H]1COCCN1c1cc(C2([S@](C)(=N)=O)CC2)nc(-c2cc[nH]c3nccc2-3)n1 [ceralasertib]
CTG-3D luminescence at 96 h
Settings	12.5 pM	0.00025 µM	0.005 µM	0.1 µM	1 µM	10 µM	100 µM	625 fM
HCI-001, days in culture: 240	1.54	0.962	0.905	0.752	1.11	0.512	0.536	1.21
HCI-001, days in culture: 260	1.68	0.899	1.81	1.66	1.19	0.492	0.35	1.32
HCI-001, days in culture: 269	1.61	1.65	1.82	1.79	1.06	0.544	0.577	1.54
HCI-001, days in culture: 327	1.41	1.4	1.77	1.47	1.36	0.335	0.479	1.44
HCI-001, days in culture: 346	1.56	1.49	1.38	1.3	1.02	0.456	0.658	1.26
HCI-001, days in culture: 364	1.44	1.19	1.23	1.16	0.732	0.301	0.319	1.52
HCI-010, days in culture: 52	2.13	2.39	2.26	2.04	0.835	0.422	0.238	2.24
HCI-010, days in culture: 65	1.69	1.62	1.85	1.57	0.693	0.3	0.152	1.65
HCI-010, days in culture: 103	3.6	3.3	3.45	3	1.49	0.548	0.325	3.14
HCI-016, days in culture: 153	3.13	2.07	1.95	2.28	1.72	0.113	0.0761	2.11
HCI-016, days in culture: 172	2.3	1.91	1.66	1.88	1.12	0.141	0.0786	1.92
HCI-016, days in culture: 190	1.54	1.14	1.72	1.27	1.11	0.1	0.0608	1.28
HCI-016, days in culture: 199	1.42	1.55	1.36	1.25	0.986	0.0835	0.0684	1.6

HCI-003.E2
Settings	CTG-3D luminescence at 96 h
12.5 pM	2.11
0.00025 µM	2.23
0.005 µM	2.12
0.1 µM	2.45
1 µM	1.51
10 µM	0.353
100 µM	0.0571
625 fM	2.11

CC(=O)O[C@H]1C(=O)[C@@]2(C)[C@H]([C@H](OC(=O)c3ccccc3)[C@]3(O)C[C@H](OC(=O)[C@H](O)[C@@H](NC(=O)c4ccccc4)c4ccccc4)C(C)=C1C3(C)C)[C@]1(OC(C)=O)CO[C@@H]1C[C@@H]2O [paclitaxel]
CTG-3D luminescence at 96 h
Settings	12.5 pM	0.00025 µM	0.005 µM	0.1 µM	1 µM	10 µM	100 µM	625 fM
HCI-001, days in culture: 240	1.49	1.15	0.619	0.709	0.952	0.995	1.03	1.1
HCI-001, days in culture: 260	2.45	1.13	1.23	1.27	1.14	1.08	0.703	1.55
HCI-001, days in culture: 269	1.48	1.52	0.95	0.728	0.749	0.987	0.92	1.27
HCI-001, days in culture: 327	1.26	0.725	1.04	0.686	1.06	0.714	0.685	1.53
HCI-001, days in culture: 346	1.29	1.24	1.16	0.568	0.791	0.655	0.947	1.18
HCI-001, days in culture: 364	1.37	1.15	1.31	0.657	0.699	0.681	0.715	1.49
HCI-010, days in culture: 52	2.13	2.39	2.24	1.16	1.15	1.12	0.408	2.28
HCI-010, days in culture: 65	1.61	1.57	1.36	1.05	0.898	0.958	0.43	1.64
HCI-010, days in culture: 103	3.62	3.37	3.05	1.41	1.24	1.28	0.858	3.06
HCI-016, days in culture: 153	1.14	0.515	0.631	0.561	0.976	1.08	0.796	0.781
HCI-016, days in culture: 172	2.25	1.87	1.29	0.627	0.505	0.659	0.505	1.5
HCI-016, days in culture: 190	1.89	1.42	0.919	0.359	0.861	0.704	0.661	1.05
HCI-016, days in culture: 199	1.64	1.67	0.633	0.431	0.495	0.834	0.484	1.66

HCI-003.E2
Settings	CTG-3D luminescence at 96 h
12.5 pM	0.723
0.00025 µM	0.764
0.005 µM	0.601
0.1 µM	0.625
1 µM	0.634
10 µM	0.787
100 µM	0.992
625 fM	0.813
